Patent US8440827B2, “Photolabile caged transition metal complexes and methods of using the same” (Duke University, priority 2008, dated 2013)
Like-named read-outs stand apart in the source and are kept apart here.

Key:
[1] = constant of the model, taken from literature; cited from earlier work
[2] = Solubility of H2cage in solvents; type: physicochemical
Description: A ligand H2cage is obtained in a one-pot, two-step synthesis starting from 3-amino-3-(2-nitrophenyl)propionic acid. […] In the presence of Cu2+, however, protons are released from H2cage at pH 3.3 and 4.8, consistent with deprotonation of both amides.

[3] = Potentiometric titration of the apo-ligand H2cage; type: physicochemical; conditions: pH range 2 to 12
[4] = Potentiometric and pH-dependent spectrophotometric titrations of CuL; type: physicochemical; conditions: for Log β (overall stability constant): pH-dependent spectrophotometric titration, 25° C., 0.1 M NaClO4, Specfit, refined
Protocol: Cu(II) perchlorate solutions (0.1 M) were prepared from solid Cu(ClO4)2.6H2O and standardized with 0.05 M EDTA to a murexide endpoint in ammonia buffer. NaOH, HClO4, and NaClO4 solutions (0.1 M) were prepared with boiled nanopure deionized water and were degassed upon cooling to remove dissolved carbonate. NaOH solutions were standardized by titration with both 0.2 M HCl and potassium hydrogen phthalate to a phenolphthalein end point and were stored under Ar; HClO4 stock solutions were prepared from concentrated perchloric acid and standardized by titration with standard NaOH to a phenolphthalein end point. All solutions were degassed with Ar for 45 minutes prior to each experimental run.
Titrations were carried out at 25° C. with 0.1 M NaClO4 supporting electrolyte in a 3-mL cuvette equipped with a pH probe, titrator tip, and stir bar, and blanketed in Ar to preserve an inert environment. The glass-bulb probe (Orion combination pH electrode model 8103BN filled with 3 M NaCl) was calibrated with pH 4 and 7 standard reference buffers (RICCA Chemical Company). CuL solutions were prepared by dissolving [Cu(OH2)(cage)] recrystallized from methanol in 0.1 M NaClO4 to obtain CuL concentrations in the range of 0.5 mM. Initial volumes were between 2 and 2.2 mL. A Schott TITRONIC® 110 plus autotitrator kept under constant Ar sparge was used to deliver 2 to 4 μL aliquots of acid or base through the titrator tip into the reaction cuvette. The solutions were stirred constantly and allowed to equilibrate at least 30 s after each addition before data were collected. All titrations were carried out from low to high and from high to low pH with similar results.
Titration data for the CuL complex show two ionizable protons below pH 5.

[5] = Deoxyribose assay for hydroxyl radical production; conditions: for effect on OH• production by copper: relative to Cu2+ alone
Description: Hydroxyl radicals, which are generated in this assay by Fenton-like conditions of copper, ascorbic acid, and H2O2, degrade deoxyribose to give thiobarbituric acid (TBA)-reactive products with absorbance at 532 nm. Ligands added to the reaction mixture attenuate the amount of TBA-reactive species by altering the coordination environment around copper. […] The 2-deoxyribose assay was used to measure hydroxyl radical formation (Halliwell, B.; Gutteridge, […]. Anal. Biochem. 1987, 165, 215-219). A mixture of copper, ascorbic acid, and hydrogen peroxide generates hydroxyl radicals by Fenton-like chemistry. Hydroxyl radicals attack 2-deoxyribose to form malondialdehyde (MDA), which upon heating with TBA under acidic conditions produces a pink chromophore (λmax=532 nm). Chelators that prevent copper from reacting with ascorbic acid and hydrogen peroxide result in less chromophore formation. All assays were performed using 20 mM NaH2PO4 buffered to pH 7.4. The following reagents were added sequentially to obtain a 1 mL buffered solution with these final concentrations: chelator (10-20 μM), CuSO4 (10 μM), 2-deoxyribose (15 mM), H2O2 (100 μM), and ascorbic acid (2 mM). For photolyzed samples, 500 μM solutions of [Cu(OH2)(cage)] in 20 mM pH 7.4 NaH2PO4 buffer were photolyzed in screwtop quartz cuvettes for 4 min in the photoreactor, then immediately diluted into the deoxyribose reaction mixtures to obtain final concentrations of 10 μM in Cu. Stock solutions of CuSO4, ascorbic acid, and H2O2 were prepared fresh daily, other solutions were prepared weekly. […] The temperature was increased to 100° C. for 20 min, then cooled to room temperature and the absorbance at 532 nm was recorded. Values are reported as A/A0 where A0 is the absorbance without chelator present and A is the absorbance with chelator added. The value for CuSO4 alone is A/A0=1. Error bars represent standard deviations from measurements done in at least triplicate.

[6] = cited from earlier work
[7] = Competition study of nitrilotriacetic acid (NTA) vs. cage for Cu2+; type: binding; conditions: competition with NTA, 50 mM HEPES pH 7.4, 25° C., refined
Protocol: Solutions of CuL (where L=cage^2−) were prepared by dissolving [Cu(OH2)cage] that was recrystallized from methanol into 50 mM HEPES (N-(2-hydroxyethyl)-piperazine-N′-2-ethanesulfonic acid) buffer, pH 7.4, with initial concentrations ranging from 03-1.5 mM. The reaction vessel was a 3-mL cuvette and initial solution volumes were 1 mL. All titrations were carried out at 25° C. Aliquots (1-2 μL) of the competitive chelator NTA (100 mM) were pipetted into CuL solutions and monitored spectrophotometrically. After each addition, solutions were manually mixed and equilibrated for 5 min before data were collected. Reported errors in log β were calculated from the standard deviation of three runs.

[8] = Photolysis with 350 nm UV light, followed by UV-vis and LC-MS; type: physicochemical; conditions: pH 7.4 phosphate buffer
Description: The shift in the d-d band centered at 580 nm indicates a reorganization of the coordination sphere upon photolysis. The band for the intact Cu complex 2 disappears and is replaced by bands corresponding to the expected photoproducts 3 and 4, as confirmed by their mass spectra and by comparison to a picolinamide standard for 3. […] Reduction to Cu1+ is also possible as a result of photolysis, although it would likely reoxidize to Cu2+ under these experimental conditions.
All chemicals were purchased commercially and used without further purification. […] Elemental analysis was performed by Columbia Analytical Services, Inc. IR spectra were measured on a Nicolet 380 FT-IR. High-resolution, fast-atom bombardment (HR-FABMS) mass spectra were recorded on JEOL JMS-SX-102 instrument. […] A Varian Polaris C18 (150×1.0 mm) column was used and peaks were detected by UV absorption at 254 nm. […] UV-vis spectra were recorded on a Cary 50 UV-vis spectrophotometer. […]

With O=C([O-])CN(CC(=O)[O-])CC(=O)O.[Cu+2] [Cu(NTA)] as the compound, how does the “Log β” value [1] read?
The value was 12.7.

For O=C(CC(NC(=O)c1ccccn1)c1ccccc1[N+](=O)[O-])NCc1ccccn1 (stereo not shown) [H2cage, Pyridine-2-carboxylic acid {1-(2-nitro-phenyl)-2-[(pyridine-2-ylmethyl)-carbamoyl]-ethyl}-amide], which “solubility in methanol and ethanol” value [2] is on record?
The value was “very soluble”.

What about the solubility in water [2] of the same compound?
The solubility in water was “moderately soluble”.

And the “dissociable (ionizable) protons” value [3]?
Its value is “no dissociable protons”.

And the “dissociable (ionizable) protons” value ([3]; listed as apo-ligand)?
The value was “no ionizable protons”.

And the “pH at which protons are released from H2cage, higher value” ([4]; in the presence of Cu2+)?
The value was 4.8.

And the “pH at which protons are released from H2cage, lower value” ([4]; in the presence of Cu2+)?
The value was 3.3.

And the “protection of deoxyribose degradation” value ([5]; compared to background reaction of Cu2+ alone, pH 7.4)?
The value was 50%.

For O=C(O)CN(CC(=O)O)CC(=O)O [NTA, nitrilotriacetic acid, reference compound], which “effect on OH• production by copper” value ([5]; pH 7.4) is on record?
The value was “promotes OH• production”.

And the Kd ([6]; pH 7.4, read-out: KD for Cu2+)?
The Kd was 0.023 nM.

Which “Log β” value [1] does the source give for O=C(O)CN(CC(=O)O)CC(=O)O [NTAH3] here?
Its value is 13.76.

For O=C(O)CN(CC(=O)O)CC(=O)O [NTAH4], which “Log β” value [1] is on record?
Its value is 14.76.

With O=C1CC(c2ccccc2[N+](=O)[O-])[N](C(=O)c2ccccn2)[Cu]([OH])[N]1Cc1ccccn1 (stereo not shown) [[Cu(OH2)(cage)]] as the compound, how does the Kd ([4]; pH 7.4, converted from log β, read-out: conditional dissociation constant, KD) read?
Its Kd is 0.016 nM.

What about the “Log β (overall stability constant)” value [4] of the same compound?
The value was 10.8.

What about the “Log β (overall stability constant)” value ([4]; listed as CuL) of the same compound?
Its value is 10.80 ± 0.01.

And the “Log β” value [7]?
The value was 10.79 ± 0.06.

And the “changes in UV-vis spectrum on exposure to UV light” value [8]?
Its value is “apparent within seconds”.

And the “time of photolysis until cleavage of the ligand is complete” value ([8]; LC-MS)?
Its value is no more than 4 min.

What about the “OH• production after uncaging by UV photolysis” value ([5]; photolyzed for 4 min, increase in A532) of the same compound?
The value was “increases OH• production”.

With NC(=O)c1ccccn1 [picolinamide] as the compound, how does the “effect on OH• production by copper” value ([5]; pH 7.4) read?
The value was “improve the catalytic properties of the metal”.

And the “log value for the 1:1 species” value ([6]; Cu2+ : ligand 1:1)?
The value was 2.87.

And the “log value for the 1:2 species” value ([6]; Cu2+ : ligand 1:2)?
Its value is 5.40.
